PubChem BioAssay AID1259407 (Chemical Carcinogenesis Research Information System (CCRIS), 2018)
The source made the active and inactive calls. No rule for the calls is given here.

Test system: CCRIS mutagenicity, Ames/micronucleus/aberration tests
Experiment: CCRIS mutagenicity studies
[1] = Test System: AMES SALMONELLA TYPHIMURIUM, Strain/Indicator: TA98, Metabolic Activation: NONE, Method: STANDARD PLATE
[2] = Test System: AMES SALMONELLA TYPHIMURIUM, Strain/Indicator: TA98, Metabolic Activation: RAT, LIVER, S-9, AROCLOR 1254, Method: STANDARD PLATE
[3] = Test System: AMES SALMONELLA TYPHIMURIUM, Strain/Indicator: TA100, Metabolic Activation: NONE, Method: STANDARD PLATE
[4] = Test System: AMES SALMONELLA TYPHIMURIUM, Strain/Indicator: TA100, Metabolic Activation: RAT, LIVER, S-9, AROCLOR 1254, Method: STANDARD PLATE
[5] = Test System: AMES SALMONELLA TYPHIMURIUM, Strain/Indicator: TA1535, Metabolic Activation: NONE, Method: STANDARD PLATE
[6] = Test System: AMES SALMONELLA TYPHIMURIUM, Strain/Indicator: TA1535, Metabolic Activation: RAT, LIVER, S-9, AROCLOR 1254, Method: STANDARD PLATE
[7] = Test System: AMES SALMONELLA TYPHIMURIUM, Strain/Indicator: TA1537, Metabolic Activation: NONE, Method: STANDARD PLATE
[8] = Test System: AMES SALMONELLA TYPHIMURIUM, Strain/Indicator: TA1537, Metabolic Activation: RAT, LIVER, S-9, AROCLOR 1254, Method: STANDARD PLATE
[9] = Test System: AMES SALMONELLA TYPHIMURIUM, Strain/Indicator: TA98, Metabolic Activation: NONE, Method: PREINCUBATION
[10] = Test System: AMES SALMONELLA TYPHIMURIUM, Strain/Indicator: TA100, Metabolic Activation: NONE, Method: PREINCUBATION
[11] = Test System: AMES SALMONELLA TYPHIMURIUM, Strain/Indicator: TA1535, Metabolic Activation: NONE, Method: PREINCUBATION
[12] = Test System: AMES SALMONELLA TYPHIMURIUM, Strain/Indicator: TA1537, Metabolic Activation: NONE, Method: PREINCUBATION

In the case of CCN(CC)c1cc(NC(C)=O)c(N=Nc2ccc([N+](=O)[O-])cc2)cc1OC, the mutagenic call [1] is reported as “active; positive”, the mutagenic call [2] is reported as “active; positive” and the mutagenic call [3] is reported as “inactive; negative”. The mutagenic call [4] was “active; positive”, the mutagenic call [5] was “inactive; negative” and the mutagenic call [6] was “active; positive”. The mutagenic call [7] was “inactive; negative”, the mutagenic call [8] was “active; positive” and the mutagenic call (Test System: MOUSE LYMPHOMA, Strain/Indicator: L5178Y (TK+/TK-), Metabolic Activation: NONE, Method: SUSPENSION/PLATE) was “inactive; negative”. The mutagenic call (Test System: MOUSE LYMPHOMA, Strain/Indicator: L5178Y (TK+/TK-), Metabolic Activation: RAT, LIVER, S-9, AROCLOR 1254, Method: SUSPENSION/PLATE) was “inactive; negative” and the mutagenic call (Test System: UDS RAT HEPATOCYTES, Strain/Indicator: THY INCORP, Metabolic Activation: NONE, Method: AUTORADIOGRAPHY) was “inactive; negative”.
With c1ccc([Se][Se]c2ccccc2)cc1 the mutagenic call (Test System: AMES SALMONELLA TYPHIMURIUM, Strain/Indicator: TA97A, Metabolic Activation: NONE, Method: PREINCUBATION) was “active; positive” and the mutagenic call (Test System: AMES SALMONELLA TYPHIMURIUM, Strain/Indicator: TA102, Metabolic Activation: NONE, Method: PREINCUBATION) was “inactive; negative”.
O=[N+]([O-])c1cc(NS(=O)(=O)c2cccc3cccnc23)ccc1Cl was tested, and the mutagenic call [1] was “inactive; negative”, the mutagenic call [2] was “inactive; negative” and the mutagenic call [3] was “inactive; negative”. The mutagenic call [4] was “inactive; negative”, the mutagenic call [5] was “inactive; negative” and the mutagenic call [6] was “inactive; negative”. For the same molecule, the mutagenic call [7] was “inactive; negative” and the mutagenic call [8] was “inactive; negative”.
With CC(C)(S)C(=O)N[C@@H](CS)C(=O)O the mutagenic call [9] was “inactive; negative”, the mutagenic call (Test System: AMES SALMONELLA TYPHIMURIUM, Strain/Indicator: TA98, Metabolic Activation: RAT, LIVER, S-9, Method: PREINCUBATION) was “inactive; negative” and the mutagenic call [10] was “inactive; negative”. For the same molecule, the mutagenic call (Test System: AMES SALMONELLA TYPHIMURIUM, Strain/Indicator: TA100, Metabolic Activation: RAT, LIVER, S-9, Method: PREINCUBATION) was “inactive; negative”, the mutagenic call [11] was “inactive; negative” and the mutagenic call (Test System: AMES SALMONELLA TYPHIMURIUM, Strain/Indicator: TA1535, Metabolic Activation: RAT, LIVER, S-9, Method: PREINCUBATION) was “inactive; negative”. The mutagenic call [12] was “inactive; negative”, the mutagenic call (Test System: AMES SALMONELLA TYPHIMURIUM, Strain/Indicator: TA1537, Metabolic Activation: RAT, LIVER, S-9, Method: PREINCUBATION) was “inactive; negative” and the mutagenic call (Test System: AMES SALMONELLA TYPHIMURIUM, Strain/Indicator: TA1538, Metabolic Activation: NONE, Method: PREINCUBATION) was “inactive; negative”. The mutagenic call (Test System: AMES SALMONELLA TYPHIMURIUM, Strain/Indicator: TA1538, Metabolic Activation: RAT, LIVER, S-9, Method: PREINCUBATION) was “inactive; negative”, the mutagenic call (Test System: E. COLI, Strain/Indicator: WP2, Metabolic Activation: NONE, Method: PREINCUBATION) was “inactive; negative” and the mutagenic call (Test System: E. COLI, Strain/Indicator: WP2 UVRA, Metabolic Activation: NONE, Method: PREINCUBATION) was “inactive; negative”. For the same molecule, the mutagenic call (Test System: E. COLI, Strain/Indicator: WP2 UVRA, Metabolic Activation: RAT, LIVER, S-9, Method: PREINCUBATION) was “inactive; negative”.
O=NN1C(C(=O)O)CSC1C(O)C(O)C(O)C(O)CO (stereo not given) was tested, and the mutagenic call [9] was “inactive; negative”, the mutagenic call [1] was “inactive; negative” and the mutagenic call (Test System: AMES SALMONELLA TYPHIMURIUM, Strain/Indicator: TA98, Metabolic Activation: RAT, LIVER, S-9, AROCLOR 1254, Method: PREINCUBATION) was “inactive; negative”. The mutagenic call [2] was “inactive; negative”, the mutagenic call [10] was “inactive; negative” and the mutagenic call [3] was “inactive; negative”. The mutagenic call (Test System: AMES SALMONELLA TYPHIMURIUM, Strain/Indicator: TA100, Metabolic Activation: RAT, LIVER, S-9, AROCLOR 1254, Method: PREINCUBATION) was “inactive; negative” and the mutagenic call [4] was “inactive; negative”.
CCCCCCCCCCCCCCCCCCCC was tested, and the mutagenic call (Test System: AMES SALMONELLA TYPHIMURIUM, Strain/Indicator: TA97, Metabolic Activation: HAMSTER, LIVER, S-9, AROCLOR 1254 (10 OR 30%), Method: PREINCUBATION) was “inactive; negative”, the mutagenic call (Test System: AMES SALMONELLA TYPHIMURIUM, Strain/Indicator: TA97, Metabolic Activation: NONE, Method: PREINCUBATION) was “inactive; negative” and the mutagenic call (Test System: AMES SALMONELLA TYPHIMURIUM, Strain/Indicator: TA97, Metabolic Activation: RAT, LIVER, S-9, AROCLOR 1254 (10 OR 30%), Method: PREINCUBATION) was “inactive; negative”. For the same molecule, the mutagenic call (Test System: AMES SALMONELLA TYPHIMURIUM, Strain/Indicator: TA98, Metabolic Activation: HAMSTER, LIVER, S-9, AROCLOR 1254 (10 OR 30%), Method: PREINCUBATION) was “inactive; negative”, the mutagenic call [9] was “inactive; negative” and the mutagenic call (Test System: AMES SALMONELLA TYPHIMURIUM, Strain/Indicator: TA98, Metabolic Activation: RAT, LIVER, S-9, AROCLOR 1254 (10 OR 30%), Method: PREINCUBATION) was “inactive; negative”. The mutagenic call (Test System: AMES SALMONELLA TYPHIMURIUM, Strain/Indicator: TA100, Metabolic Activation: HAMSTER, LIVER, S-9, AROCLOR 1254 (10 OR 30%), Method: PREINCUBATION) was “inactive; negative”, the mutagenic call [10] was “inactive; negative” and the mutagenic call (Test System: AMES SALMONELLA TYPHIMURIUM, Strain/Indicator: TA100, Metabolic Activation: RAT, LIVER, S-9, AROCLOR 1254 (10 OR 30%), Method: PREINCUBATION) was “inactive; negative”. The mutagenic call (Test System: AMES SALMONELLA TYPHIMURIUM, Strain/Indicator: TA1535, Metabolic Activation: HAMSTER, LIVER, S-9, AROCLOR 1254 (10 OR 30%), Method: PREINCUBATION) was “inactive; negative”, the mutagenic call [11] was “inactive; negative” and the mutagenic call (Test System: AMES SALMONELLA TYPHIMURIUM, Strain/Indicator: TA1535, Metabolic Activation: RAT, LIVER, S-9, AROCLOR 1254 (10 OR 30%), Method: PREINCUBATION) was “inactive; negative”. The mutagenic call (Test System: AMES SALMONELLA TYPHIMURIUM, Strain/Indicator: TA1537, Metabolic Activation: HAMSTER, LIVER, S-9, AROCLOR 1254 (30%), Method: PREINCUBATION) was “inactive; negative”, the mutagenic call [12] was “inactive; negative” and the mutagenic call (Test System: AMES SALMONELLA TYPHIMURIUM, Strain/Indicator: TA1537, Metabolic Activation: RAT, LIVER, S-9, AROCLOR 1254 (30%), Method: PREINCUBATION) was “inactive; negative”.
With COC(=O)c1oc(N(OC(C)=O)C(C)=O)c(-c2ccccc2)c1-c1ccccc1 the mutagenic call [9] was “inactive; negative”, the mutagenic call (Test System: AMES SALMONELLA TYPHIMURIUM, Strain/Indicator: TA98, Metabolic Activation: RAT, LIVER, S-9, AROCLOR, Method: PREINCUBATION) was “inactive; negative” and the mutagenic call [10] was “inactive; negative”. For the same molecule, the mutagenic call (Test System: AMES SALMONELLA TYPHIMURIUM, Strain/Indicator: TA100, Metabolic Activation: RAT, LIVER, S-9, AROCLOR, Method: PREINCUBATION) was “inactive; negative”.
With O=c1c2c(O)cc(O)cc2oc2c(O)ccc(O[C@@H]3O[C@H](CO)[C@@H](O)[C@H](O)[C@H]3O)c12 the mutagenic call (Test System: AMES SALMONELLA TYPHIMURIUM, Strain/Indicator: TA97, Metabolic Activation: RAT, LIVER, S-9, PHENOBARBITAL AND 5,6-BENZOFLAVONE, BETA-GLUCOSIDASE, Method: PREINCUBATION) was “active; positive”, the mutagenic call (Test System: AMES SALMONELLA TYPHIMURIUM, Strain/Indicator: TA98, Metabolic Activation: RAT, LIVER, S-9, PHENOBARBITAL AND 5,6-BENZOFLAVONE, BETA-GLUCOSIDASE, Method: PREINCUBATION) was “inactive; negative” and the mutagenic call (Test System: AMES SALMONELLA TYPHIMURIUM, Strain/Indicator: TA100, Metabolic Activation: RAT, LIVER, S-9, PHENOBARBITAL AND 5,6-BENZOFLAVONE, BETA-GLUCOSIDASE, Method: PREINCUBATION) was “active; positive”. The mutagenic call (Test System: AMES SALMONELLA TYPHIMURIUM, Strain/Indicator: TA2637, Metabolic Activation: RAT, LIVER, S-9, PHENOBARBITAL AND 5,6-BENZOFLAVONE, BETA-GLUCOSIDASE, Method: PREINCUBATION) was “active; positive”.
